Experimental data published in ChEMBL document CHEMBL4152300, “Discovery of the selective and efficacious inhibitors of FLT3 mutations” (Eur J Med Chem, 2018).
pIC50, pKd: −log10 of the molar value.

Key:
[1] = biological target: T1, CDK2 (cyclin-dependent kinase 2) (Homo sapiens, UniProt P24941); test: Inhibition of CDK2 (unknown origin) assessed as residual activity at 0.123 uM by Hotspot assay relative to control; details: CDK2 enzyme (unknown origin), read-out: Activity
[2] = biological target: T2, Receptor-type tyrosine-protein kinase FLT3 (Homo sapiens, UniProt P36888)
T2 sequence (P36888 whole entry): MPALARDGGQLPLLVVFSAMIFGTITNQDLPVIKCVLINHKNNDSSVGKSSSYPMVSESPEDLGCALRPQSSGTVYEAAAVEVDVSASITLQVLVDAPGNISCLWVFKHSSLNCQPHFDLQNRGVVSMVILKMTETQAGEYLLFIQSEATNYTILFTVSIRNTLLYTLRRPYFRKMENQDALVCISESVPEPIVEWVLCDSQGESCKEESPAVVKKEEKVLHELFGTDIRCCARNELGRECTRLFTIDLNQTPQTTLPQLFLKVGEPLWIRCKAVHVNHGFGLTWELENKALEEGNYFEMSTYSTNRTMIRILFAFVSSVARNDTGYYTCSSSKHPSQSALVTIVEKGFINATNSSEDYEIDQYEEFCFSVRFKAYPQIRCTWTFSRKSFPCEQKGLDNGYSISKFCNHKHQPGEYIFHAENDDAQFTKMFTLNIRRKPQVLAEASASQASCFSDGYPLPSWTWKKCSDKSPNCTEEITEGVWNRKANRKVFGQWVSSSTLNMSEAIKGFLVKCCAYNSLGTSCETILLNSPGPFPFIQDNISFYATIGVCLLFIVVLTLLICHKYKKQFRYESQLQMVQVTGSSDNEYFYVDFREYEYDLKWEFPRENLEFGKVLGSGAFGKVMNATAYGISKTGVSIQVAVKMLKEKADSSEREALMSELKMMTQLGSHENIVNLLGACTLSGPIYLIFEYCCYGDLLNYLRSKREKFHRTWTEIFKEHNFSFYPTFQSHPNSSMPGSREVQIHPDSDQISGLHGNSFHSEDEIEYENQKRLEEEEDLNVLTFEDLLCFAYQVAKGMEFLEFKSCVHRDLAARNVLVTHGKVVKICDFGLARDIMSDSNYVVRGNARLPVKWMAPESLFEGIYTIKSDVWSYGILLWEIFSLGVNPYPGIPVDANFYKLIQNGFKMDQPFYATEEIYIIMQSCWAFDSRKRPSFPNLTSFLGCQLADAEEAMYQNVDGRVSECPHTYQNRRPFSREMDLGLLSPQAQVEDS
Description: Inhibition of human FLT3 by Hotspot assay

[3] = biological target: T3, Cyclin-dependent kinase 6 (Homo sapiens, UniProt Q00534); test: Inhibition of CDK6 (unknown origin) assessed as residual activity at 0.123 uM by Hotspot assay relative to control
T3 sequence (Q00534 whole entry): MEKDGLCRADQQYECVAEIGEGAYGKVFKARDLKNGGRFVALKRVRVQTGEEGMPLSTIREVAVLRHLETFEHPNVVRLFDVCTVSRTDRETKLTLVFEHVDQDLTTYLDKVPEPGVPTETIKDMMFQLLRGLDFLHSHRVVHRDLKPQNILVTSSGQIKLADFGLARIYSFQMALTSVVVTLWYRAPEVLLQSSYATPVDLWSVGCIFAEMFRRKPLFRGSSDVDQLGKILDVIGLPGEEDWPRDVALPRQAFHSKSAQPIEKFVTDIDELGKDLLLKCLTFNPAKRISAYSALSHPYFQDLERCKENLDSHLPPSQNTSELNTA

[4] = test system: MV4-11; test: Growth inhibition of human MV4-11 cells harboring FLT3-ITD after 72 hrs by Cell-Titer Glo assay; type: functional, cell-based; details: MV4-11, 72 h
[5] = species: Homo sapiens; test: Selectivity ratio of IC50 for CDK6 (unknown origin) to IC50 for human FLT3
[6] = species: Homo sapiens; test: Selectivity ratio of IC50 for CDK2 (unknown origin) to IC50 for human FLT3
[7] = biological target: T4, Receptor-type tyrosine-protein kinase FLT3 (Homo sapiens, UniProt P36888); test: Inhibition of human FLT3 assessed as residual activity at 0.123 uM by Hotspot assay relative to control
[8] = biological target: T3, Cyclin-dependent kinase 6; test: Inhibition of CDK6 (unknown origin) by Hotspot assay
[9] = biological target: T1, CDK2 (cyclin-dependent kinase 2); test: Inhibition of CDK2 (unknown origin) at 0.123 uM by Hotspot assay relative to control; details: CDK2 enzyme (unknown origin)
[10] = biological target: T3, Cyclin-dependent kinase 6; test: Inhibition of CDK6 (unknown origin) at 0.123 uM by Hotspot assay relative to control
[11] = biological target: Cyclin-dependent kinase 2 (Homo sapiens, UniProt P24941); test: Inhibition of CDK2 (unknown origin) by Hotspot assay
[12] = test system: MOLM-13; test: Growth inhibition of human MOLM13 cells harboring FLT3-ITD after 72 hrs by Cell-Titer Glo assay; type: functional, cell-based; details: MOLM-13, 72 h
[13] = biological target: T5, Receptor-type tyrosine-protein kinase FLT3 (Homo sapiens, UniProt P36888, ITD); test: Inhibition of human FLT3 ITD-NPOS mutant by Hotspot assay
[14] = biological target: Receptor-type tyrosine-protein kinase FLT3 (Homo sapiens, UniProt P36888, D835V/ITD); test: Binding affinity to human FLT3 ITD/D835V double mutant expressed in bacterial expression system by Kinomescan method
[15] = biological target: Cyclin-dependent kinase 4/cyclin D1 (Homo sapiens, UniProt P11802); test: Inhibition of human CDK4/Cyclin-D1 at 0.123 uM by Hotspot assay; type: protein-complex assay
Cyclin-dependent kinase 4/cyclin D1, sequence (P11802 whole entry): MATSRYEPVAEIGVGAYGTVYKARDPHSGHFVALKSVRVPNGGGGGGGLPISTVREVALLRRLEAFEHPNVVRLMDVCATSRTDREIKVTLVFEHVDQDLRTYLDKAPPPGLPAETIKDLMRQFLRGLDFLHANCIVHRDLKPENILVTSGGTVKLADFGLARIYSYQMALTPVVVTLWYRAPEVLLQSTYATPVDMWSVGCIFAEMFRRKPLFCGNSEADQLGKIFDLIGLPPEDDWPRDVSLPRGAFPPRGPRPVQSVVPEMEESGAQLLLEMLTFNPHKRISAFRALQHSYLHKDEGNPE
Cyclin-dependent kinase 4/cyclin D1, sequence (P24385 whole entry, further chain): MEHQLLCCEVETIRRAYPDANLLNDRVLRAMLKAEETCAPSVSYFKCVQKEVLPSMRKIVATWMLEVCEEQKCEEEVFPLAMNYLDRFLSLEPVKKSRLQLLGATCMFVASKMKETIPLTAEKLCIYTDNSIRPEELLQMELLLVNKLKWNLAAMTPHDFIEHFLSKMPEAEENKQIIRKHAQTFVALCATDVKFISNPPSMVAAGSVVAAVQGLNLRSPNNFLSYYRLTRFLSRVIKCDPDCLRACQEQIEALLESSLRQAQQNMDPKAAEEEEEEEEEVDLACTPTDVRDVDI

[16] = test system: K562; test: Growth inhibition of FLT3 null human K562 cells after 72 hrs by Cell-Titer Glo assay; type: functional, cell-based; details: K562, 72 h
[17] = Intrinsic clearance in human liver microsomes preincubated for 5 mins followed by NADPH addition by LC-MS/MS analysis; type: ADME, microsome; details: read-out: CLH
[18] = biological target: T6, Receptor-type tyrosine-protein kinase FLT3 (Homo sapiens, UniProt P36888, D835Y); test: Binding affinity to human FLT3 D835Y mutant (Q580 to Y969 residues) expressed in bacterial expression system by Kinomescan method
[19] = Half life in human liver microsomes preincubated for 5 mins followed by NADPH addition by LC-MS/MS analysis; type: ADME, microsome
[20] = biological target: Mitogen-activated protein kinase 15 (Homo sapiens, UniProt Q8TD08); test: Inhibition of human ERK7 at 0.123 uM by Hotspot assay
Mitogen-activated protein kinase 15, sequence (Q8TD08 whole entry): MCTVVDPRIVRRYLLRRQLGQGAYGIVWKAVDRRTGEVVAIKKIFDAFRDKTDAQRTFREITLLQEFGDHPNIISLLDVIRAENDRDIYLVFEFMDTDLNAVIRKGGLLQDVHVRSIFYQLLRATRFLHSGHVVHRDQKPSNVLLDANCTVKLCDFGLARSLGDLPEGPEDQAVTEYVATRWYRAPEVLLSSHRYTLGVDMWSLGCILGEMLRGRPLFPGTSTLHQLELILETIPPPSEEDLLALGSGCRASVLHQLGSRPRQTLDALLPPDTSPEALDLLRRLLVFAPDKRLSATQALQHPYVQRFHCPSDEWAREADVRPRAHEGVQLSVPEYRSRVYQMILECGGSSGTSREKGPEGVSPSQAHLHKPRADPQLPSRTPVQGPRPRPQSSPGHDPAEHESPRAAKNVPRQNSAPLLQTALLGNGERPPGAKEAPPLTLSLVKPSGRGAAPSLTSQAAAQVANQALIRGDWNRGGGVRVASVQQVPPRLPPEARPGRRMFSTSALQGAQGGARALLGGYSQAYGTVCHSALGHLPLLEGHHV

[21] = biological target: Vascular endothelial growth factor receptor 3 (Homo sapiens, UniProt P35916); test: Inhibition of human FLT4 by Hotspot assay
Vascular endothelial growth factor receptor 3, sequence (P35916 whole entry): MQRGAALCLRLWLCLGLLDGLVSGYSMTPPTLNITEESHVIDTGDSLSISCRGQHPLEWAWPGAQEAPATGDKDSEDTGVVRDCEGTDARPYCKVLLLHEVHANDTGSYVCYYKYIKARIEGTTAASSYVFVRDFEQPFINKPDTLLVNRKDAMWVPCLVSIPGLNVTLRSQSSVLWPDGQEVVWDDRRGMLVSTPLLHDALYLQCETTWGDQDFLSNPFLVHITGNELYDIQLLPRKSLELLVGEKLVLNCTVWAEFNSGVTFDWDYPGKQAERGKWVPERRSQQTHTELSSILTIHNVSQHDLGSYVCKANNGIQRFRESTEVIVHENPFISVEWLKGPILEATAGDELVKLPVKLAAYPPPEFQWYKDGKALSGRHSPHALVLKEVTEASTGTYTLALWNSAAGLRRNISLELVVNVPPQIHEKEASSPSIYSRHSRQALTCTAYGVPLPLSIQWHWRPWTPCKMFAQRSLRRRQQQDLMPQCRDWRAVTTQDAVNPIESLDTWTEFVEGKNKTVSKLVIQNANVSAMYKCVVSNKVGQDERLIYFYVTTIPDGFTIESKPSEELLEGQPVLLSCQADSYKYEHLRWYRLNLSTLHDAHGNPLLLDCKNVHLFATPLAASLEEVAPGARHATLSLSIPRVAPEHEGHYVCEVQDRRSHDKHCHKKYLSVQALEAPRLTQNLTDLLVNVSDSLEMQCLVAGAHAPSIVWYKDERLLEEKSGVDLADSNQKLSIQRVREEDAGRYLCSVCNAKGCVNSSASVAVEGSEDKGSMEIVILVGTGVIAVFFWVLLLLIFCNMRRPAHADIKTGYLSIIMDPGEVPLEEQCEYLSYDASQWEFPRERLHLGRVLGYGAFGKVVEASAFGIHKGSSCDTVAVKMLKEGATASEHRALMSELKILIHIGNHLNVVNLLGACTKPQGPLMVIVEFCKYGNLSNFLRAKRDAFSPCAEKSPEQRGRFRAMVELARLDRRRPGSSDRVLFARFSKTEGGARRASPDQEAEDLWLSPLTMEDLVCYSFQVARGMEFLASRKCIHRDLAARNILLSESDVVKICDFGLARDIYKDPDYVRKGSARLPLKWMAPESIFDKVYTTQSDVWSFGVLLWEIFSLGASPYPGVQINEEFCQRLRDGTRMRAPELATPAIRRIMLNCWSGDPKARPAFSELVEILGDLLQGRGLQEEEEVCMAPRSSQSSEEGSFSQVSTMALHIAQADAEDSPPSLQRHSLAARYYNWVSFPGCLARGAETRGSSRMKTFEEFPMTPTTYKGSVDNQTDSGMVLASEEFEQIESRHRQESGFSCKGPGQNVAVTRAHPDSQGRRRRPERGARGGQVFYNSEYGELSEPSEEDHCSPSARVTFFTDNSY

[22] = test system: HL-60; test: Growth inhibition of human HL60 cells expressing low levels of FLT3 after 72 hrs by Cell-Titer Glo assay; type: functional, cell-based; details: HL-60, 72 h
[23] = biological target: T6, Receptor-type tyrosine-protein kinase FLT3; test: Inhibition of human FLT3 D835Y mutant by Hotspot assay
[24] = biological target: T4, Receptor-type tyrosine-protein kinase FLT3; test: Inhibition of human FLT3 R595_E596 mutant by Hotspot assay
[25] = biological target: CDK2/Cyclin A2 (Homo sapiens, UniProt P24941); test: Inhibition of human CDK2/Cyclin-A at 0.123 uM by Hotspot assay; type: protein-complex assay
[26] = biological target: T4, Receptor-type tyrosine-protein kinase FLT3; test: Inhibition of human FLT3 Y591-V592 mutant by Hotspot assay
[27] = biological target: T4, Receptor-type tyrosine-protein kinase FLT3; test: Inhibition of human FLT3 F594_R595insREY mutant by Hotspot assay
[28] = biological target: T4, Receptor-type tyrosine-protein kinase FLT3; test: Inhibition of human FLT3 F594_R595insR mutant by Hotspot assay
[29] = biological target: T5, Receptor-type tyrosine-protein kinase FLT3; test: Inhibition of human FLT3 ITD-W51 mutant by Hotspot assay
[30] = biological target: Receptor-type tyrosine-protein kinase FLT3 (Homo sapiens, UniProt P36888, F691L/ITD); test: Binding affinity to human FLT3 ITD/F691L double mutant expressed in bacterial expression system by Kinomescan method
[31] = Drug uptake in human liver microsomes up to 60 mins by LC-MS/MS analysis; type: ADME, microsome; details: 1 h
[32] = biological target: CDK6/cyclin D1 (Homo sapiens, UniProt Q00534); test: Inhibition of human CDK6/Cyclin-D1 at 0.123 uM by Hotspot assay; type: protein-complex assay
CDK6/cyclin D1, sequence (P24385 whole entry): as the sequence (P24385 whole entry, further chain) above
CDK6/cyclin D1, sequence (Q00534 whole entry): as the sequence (Q00534 whole entry) above

`O=C(Nc1ccc(CN2CCOCC2)cc1)c1n[nH]cc1Nc1nc(C2CC2)nc2sccc12` gave an activity at 0.123 µM [1] of 81.4%, a pIC50 [2] of 7.78 and an Activity [3] of 95.4%. It also gave a pIC50 [4] of 7.11.
In the case of `CCc1nc(Nc2c[nH]nc2C(=O)Nc2ccc(N3CCNCC3)cc2)c2ccsc2n1`, the activity at 0.123 µM [1] was 86.6%, the pIC50 [2] was 8.47 and the Activity [3] was 87%. For the same compound, the pIC50 [4] was 7.19.
In the case of `Cc1nc(Nc2c[nH]nc2C(=O)Nc2ccc(CN3CCN(C)CC3)cc2)c2ccsc2n1`, the Ratio IC50 [5] was 100, the activity at 0.123 µM [1] was 51.1% and the pIC50 [2] was 9.19. For the same compound, the Ratio IC50 [6] was 100, the Activity [3] was 72.1% and the pIC50 [4] was 7.28.
Work on `CN1CCN(Cc2ccc(NC(=O)c3n[nH]cc3Nc3nc(C4CC4)nc4sccc34)cc2)CC1` yielded an activity at 0.123 µM [1] of 89.8%, a pIC50 [2] of 7.80 and an Activity [3] of 103%. The pIC50 [4] was 7.21.
Compound `CN1CCN(Cc2ccc(NC(=O)c3nn(C)cc3Nc3ncnc4[nH]ccc34)cc2)CC1` has an activity at 0.123 µM [1] of 98.5%, an Activity [7] of 87.6% and an Activity [3] of 99.3%.
`CC(C)c1nc(Nc2c[nH]nc2C(=O)Nc2ccc(N3CCNCC3)cc2)c2ccsc2n1` gave an activity at 0.123 µM [1] of 101%, a pIC50 [2] of 7.95 and an Activity [3] of 93.5%. The pIC50 [4] was 7.24.
Compound `Cc1[nH]nc(C(=O)Nc2ccc(CN3CCN(C)CC3)cc2)c1Nc1ncnc2sccc12` has an activity at 0.123 µM [1] of 99.7%, an Activity [7] of 98.5% and an Activity [3] of 96.2%.
With `O=C(Nc1ccc(N2CCNCC2)cc1)c1n[nH]cc1Nc1nc(Cl)nc2sccc12` the activity at 0.123 µM [1] was 56.8%, the pIC50 [2] was 9.33 and the Activity [3] was 63.6%. It also gave a pIC50 [4] of 7.59.
`Cc1nc(Nc2c[nH]nc2C(=O)Nc2ccc(N3CCNCC3)cc2)c2ccsc2n1` gave a Ratio IC50 [5] of 131, a pIC50 [8] of 7.07 and a pIC50 [2] of 9.21. The inhibition at 0.123 µM [9] was > 80%, the inhibition [10] was > 80% and the Ratio IC50 [6] was 131. It also gave a pIC50 [4] of 7.72 and a pIC50 [11] of 7.09.
In the case of `Cc1nc(Nc2c[nH]nc2C(=O)Nc2ccc(CN3CCOCC3)cc2)c2cc(C(C)C)sc2n1`, the pIC50 [8] was 7.48, the pIC50 [2] was 9.18 and the inhibition at 0.123 µM [9] was > 80%. The inhibition [10] was > 80%, the pIC50 [4] was 7.32 and the pIC50 [11] was 7.60.
With `Cc1nc(Nc2c[nH]nc2C(=O)Nc2ccc(N3CCN(C)CC3)cc2)c2ccsc2n1` the activity at 0.123 µM [1] was 71.2%, the pIC50 [2] was 9.02 and the Activity [3] was 72.7%. It also gave a pIC50 [4] of 7.57.
Compound `Cc1[nH]nc(C(=O)Nc2ccc(CN3CCN(C)CC3)cc2)c1Nc1ncnc2[nH]ccc12` has an activity at 0.123 µM [1] of 99.9%, an Activity [7] of 98.5% and an Activity [3] of 95.7%.
Work on `O=C(Nc1ccc(N2CCNCC2)cc1)c1n[nH]cc1Nc1nc(C2CC2)nc2sccc12` yielded an activity at 0.123 µM [1] of 97.4%, a pIC50 [2] of 8.60 and an Activity [3] of 88%. For the same compound, the pIC50 [4] was 7.23.
`Cc1nc(Nc2c[nH]nc2C(=O)Nc2ccc(CN3CCOCC3)cc2)c2ccsc2n1` gave an activity at 0.123 µM [1] of 52%, a pIC50 [2] of 8.44 and an Activity [3] of 79.7%. For the same compound, the pIC50 [4] was 7.21.
Work on `CN1CCN(Cc2ccc(NC(=O)c3n[nH]cc3Nc3ncnc4sccc34)cc2)CC1` yielded a pIC50 [12] of 7.41, a pIC50 [13] of 7.76 and a pKd [14] of 9.64. For the same compound, the pIC50 [15] was > 8.00, the pIC50 [8] was 8.48 and the pIC50 [16] was 6.63. For the same compound, the microsomal CLint [17] was 13.6 µL/min/mg, the pKd [18] was 8.15 and the half-life [19] was 51 min. The pIC50 [20] was > 8.00, the pIC50 [21] was 8.35 and the pIC50 [22] was 6.48. It also gave a pIC50 [23] of 9.27, a pIC50 [24] of 8.57 and a pIC50 [2] of 9.22. The pIC50 [25] was > 8.00, the inhibition at 0.123 µM [9] was > 80% and the inhibition [10] was > 80%. The pIC50 [26] was 7.88, the pIC50 [27] was 8.13 and the pIC50 [28] was 8.91. It also gave a pIC50 [29] of 8.73, a pKd [30] of 8.89 and a Drug uptake [31] of 29.7%. For the same compound, the pIC50 [32] was > 8.00 and the pIC50 [4] was 7.80.
`CC(C)(C)c1nc(Nc2c[nH]nc2C(=O)Nc2ccc(N3CCNCC3)cc2)c2ccsc2n1` gave an activity at 0.123 µM [1] of 100%, a pIC50 [2] of 7.69 and an Activity [3] of 99.2%. The pIC50 [4] was 7.01.
For `Cc1nc(Nc2c[nH]nc2C(=O)Nc2ccc(N3CCOCC3)cc2)c2ccsc2n1`, the activity at 0.123 µM [1] was 78.8%, the pIC50 [2] was 8.42 and the Activity [3] was 83.1%. For the same compound, the pIC50 [4] was 7.48.
In the case of `Cc1nc2c(c(Nc3c[nH]nc3C(=O)Nc3ccc(N4CCNCC4)cc3)n1)CCCC2`, the activity at 0.123 µM [1] was 79.4%, the pIC50 [2] was 9.18 and the Activity [3] was 87.2%. For the same compound, the pIC50 [4] was 7.74.
In the case of `Cc1nc(Nc2c[nH]nc2C(=O)Nc2ccc(CN3CCN(C)CC3)cc2)c2cc(C(C)C)sc2n1`, the pIC50 [8] was 7.72, the pIC50 [2] was 9.14 and the inhibition at 0.123 µM [9] was > 80%. For the same compound, the inhibition [10] was > 80%, the pIC50 [4] was 7.19 and the pIC50 [11] was 7.67.
